Target: T1, Recombinant human cathepsin A (Homo sapiens, UniProt P10619)
T1 construct: Recombinant human cathepsin A (residues 29-480, with a C-terminal 10-His tag); 10-His (C); purchased R&D Systems 1049-SE
T1 sequence (P10619 29-312 limits assumed): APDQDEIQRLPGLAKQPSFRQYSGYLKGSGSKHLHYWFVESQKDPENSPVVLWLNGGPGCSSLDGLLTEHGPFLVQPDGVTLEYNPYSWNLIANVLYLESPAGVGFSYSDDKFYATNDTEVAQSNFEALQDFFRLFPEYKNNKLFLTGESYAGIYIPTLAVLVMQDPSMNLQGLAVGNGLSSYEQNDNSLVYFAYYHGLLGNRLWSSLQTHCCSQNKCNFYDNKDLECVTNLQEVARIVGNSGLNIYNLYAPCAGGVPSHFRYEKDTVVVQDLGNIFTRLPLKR
T1 sequence (P10619 327-480 limits assumed): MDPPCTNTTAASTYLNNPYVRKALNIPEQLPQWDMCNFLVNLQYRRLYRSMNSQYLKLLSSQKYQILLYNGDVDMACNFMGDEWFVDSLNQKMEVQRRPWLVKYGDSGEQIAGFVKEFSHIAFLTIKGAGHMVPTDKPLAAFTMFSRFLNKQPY
Experiment: Cathepsin A inhibitory activity
Format: biochemical
Conditions: pharmacological test "Cathepsin A inhibitory activity"; IC50 given as class A/B/C; read-out: Activity (2): Cathepsin A inhibitory activity, IC50 class
Method in brief: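 Human cathepsin A (res. 29-480, C-His10) pre-activated with cathepsin L (MES pH 6.0, DTT, 15 min, 37 °C; quenched with 10 μM E-64). Enzyme (833 ng/ml) preincubated 15 min RT with compound in MES pH 5.5/DTT, then 2 μM Bodipy FL-bradykinin for 15 min RT. Capillary electrophoresis product/substrate peak areas; IC50 from % inhibition.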

IC50 [nM] | SMILES
100 to 1000 | COc1cccc(-c2ccc(C(CC(=O)O)NC(=O)c3cc(O)n(-c4ccccc4Cl)n3)cc2)c1 (stereo not shown) [Example 157]
100 to 1000 | COc1ccc([C@H](CC(=O)O)NC(=O)c2cc(O)n(-c3ccccc3)n2)cn1 [Example 144]
100 to 1000 | CCc1ccc(C(CC(=O)O)NC(=O)c2cc(O)n(-c3ccc(F)cc3F)n2)cc1 (stereo not shown) [Example 194]
100 to 1000 | COc1cccc([C@H](CC(=O)O)NC(=O)c2cc(O)n(-c3ccc(F)cc3F)n2)c1OC [Example 189]
< 100 | Cc1cc(F)ccc1C(CC(=O)O)NC(=O)c1cc(O)n(-c2ccc(F)cc2F)n1 (stereo not shown) [Example 196]
100 to 1000 | O=C(O)CC(NC(=O)c1cc(O)n(-c2ccccc2Cl)n1)c1cccc(Cl)c1F (stereo not shown) [Example 222]
100 to 1000 | O=C(O)C[C@H](NC(=O)c1cc(O)n(-c2ccccc2)n1)c1ccc(F)cc1 [Example 163]

Same assay, conditions: read-out: Activity (2): Cathepsin A inhibitory activity (IC50 class)

IC50 [nM] | SMILES
1000 to 30000 | COc1cc(-c2ccccc2)ccc1C(CC(=O)O)NC(=O)c1cc(O)n(-c2ccccc2)n1 (stereo not shown) [Example 545, 3-[(5-Hydroxy-1-phenyl-1H-pyrazole-3-carbonyl)-amino]-3-(3-methoxy-biphenyl-4-yl)-propionic acid]
100 to 1000 | O=C(O)C[C@H](NC(=O)c1cc(OCC2CC2)n(-c2ccccc2F)n1)c1ccc(Cl)cc1 [Example 691]
100 to 1000 | Cc1ccccc1C(CC(=O)O)NC(=O)c1nn(-c2ccccc2F)c(O)c1C (stereo not shown) [Example 592]
< 100 | COc1cc(C(=O)N[C@@H](CC(=O)O)c2ccccc2C)nn1-c1cc(F)ccc1F [Example 610]
100 to 1000 | COc1cc(-c2ccccc2)ccc1C(CC(=O)O)NC(=O)c1cc(O)n(-c2ccccc2F)n1 (stereo not shown) [Example 551, 3-{[1-(2-Fluoro-phenyl)-5-hydroxy-1H-pyrazole-3-carbonyl]-amino}-3-(3-methoxy-biphenyl-4-yl)-propionic acid]
100 to 1000 | CCOc1cc(C(=O)N[C@@H](CC(=O)O)c2ccccc2)nn1-c1ccccc1F [Example 707]
< 100 | CCOc1cc(C(=O)NC(CC(=O)O)c2ccc(F)cc2C)nn1-c1ccccc1Cl (stereo not shown) [Example 738]
< 100 | COc1cc(C(=O)NC(CC(=O)O)c2cccc(F)c2C)nn1-c1ccccc1F (stereo not shown) [Example 664]

SMILES | IC50 [nM]
CC(C)C(C)(O)COc1cc(C(=O)N[C@@H](CC(=O)O)c2cccc(Cl)c2)nn1-c1ccccc1F (stereo partly drawn) [Example 785, (S)-3-(3-Chloro-phenyl)-3-{[1-(2-fluoro-phenyl)-5-(2-hydroxy-2,3-dimethyl-butoxy)-1H-pyrazole-3-carbonyl]-amino}-propionic acid] | < 100
CC(C)C(C)(O)COc1cc(C(=O)N[C@@H](CC(=O)O)c2ccccc2Cl)nn1-c1ccccc1F (stereo partly drawn) [Example 775, (S)-3-(2-Chloro-phenyl)-3-{[1-(2-fluoro-phenyl)-5-(2-hydroxy-2,3-dimethyl-butoxy)-1H-pyrazole-3-carbonyl]-amino}-propionic acid] | < 100
CC(C)(C)[C@@H](O)COc1cc(C(=O)N[C@@H](CC(=O)O)c2ccccc2Cl)nn1-c1ccccc1F [Example 793, (S)-3-(2-Chloro-phenyl)-3-{[1-(2-fluoro-phenyl)-5-((R)-2-hydroxy-3,3-dimethyl-butoxy)-1H-pyrazole-3-carbonyl]-amino}-propionic acid] | < 100

Same assay, conditions: read-out: Activity (2): Cathepsin A inhibitory activity, IC50 class

IC50 [nM] | SMILES
1000 to 30000 | Cc1ccc(C)c(-n2nc(C(=O)NC(CC(=O)O)C3CC3)cc2O)c1 (stereo not shown) [Example 36]
100 to 1000 | O=C(O)C[C@H](NC(=O)c1cc(O)n(-c2ccccc2Cl)n1)c1ccccc1C(F)(F)F [Example 108]
1000 to 30000 | O=C(O)C[C@H](NC(=O)c1cc(O)n(-c2cccc(F)c2)n1)c1ccc(C(F)(F)F)cc1 [Example 313]
1000 to 30000 | Cc1ccc(C)c(-n2nc(C(=O)NC(CC(=O)O)CC(C)C)cc2O)c1 (stereo not shown) [Example 38]
100 to 1000 | Cc1ccc(C(CC(=O)O)NC(=O)c2cc(O)n(-c3ccc(F)cc3)n2)c(C)c1 (stereo not shown) [Example 89]
1000 to 30000 | Cc1ccc(C)c(-n2nc(C(=O)NC(CC(=O)O)c3cccc(Cl)c3)cc2O)c1 (stereo not shown) [Example 29]
< 100 | COc1cc(C(=O)N[C@@H](CC(=O)O)c2ccccc2C)nn1-c1ccccc1F [Example 129, (S)-3-{[1-(2-Fluoro-phenyl)-5-methoxy-1H-pyrazole-3-carbonyl]-amino}-3-o-tolyl-propionic acid]
< 100 | O=C(O)CC(NC(=O)c1cc(O)n(-c2ccccc2Cl)n1)c1ccc(-c2ccc(F)cc2)cc1 (stereo not shown) [Example 115]
1000 to 30000 | O=C(O)C[C@H](NC(=O)c1cc(O)n(-c2ccc(Cl)cc2)n1)c1cccc(F)c1 [Example 279]
100 to 1000 | O=C(O)C[C@H](NC(=O)c1cc(O)n(-c2cccc(F)c2)n1)c1ccc(Cl)cc1 [Example 331]
100 to 1000 | O=C(O)C[C@H](NC(=O)c1cc(O)n(-c2ccccc2Cl)n1)c1ccc(C(F)(F)F)cc1 [Example 110]
1000 to 30000 | O=C(O)C[C@H](NC(=O)c1cc(O)n(-c2ccc(Cl)cc2)n1)c1cccc(C(F)(F)F)c1 [Example 285]
100 to 1000 | O=C(O)C[C@H](NC(=O)c1cc(O)n(-c2ccccc2F)n1)c1ccc(Cl)cc1 [Example 120]
1000 to 30000 | Cc1ccc(C)c(C(CC(=O)O)NC(=O)c2cc(O)n(-c3ccc(F)cc3)n2)c1 (stereo not shown) [Example 359]
100 to 1000 | O=C(O)CC(NC(=O)c1cc(O)n(-c2ccccc2)n1)c1cccc(Cl)c1 (stereo not shown) [Example 10]

SMILES | IC50 [nM]
CC(C)[C@@](C)(O)COc1cc(C(=O)N[C@@H](CC(=O)O)c2ccc(Cl)cc2Cl)nn1-c1ccccc1F [Example 816, (S)-3-(2,4-Dichloro-phenyl)-3-{[1-(2-fluoro-phenyl)-5-((R)-2-hydroxy-2,3-dimethyl-butoxy)-1H-pyrazole-3-carbonyl]-amino}-propionic acid] | < 100
CC(C)CC(CC(=O)O)NC(=O)c1cc(OCC(C)(O)C(C)C)n(-c2ccccc2F)n1 (stereo not shown) [Example 814, 3-{[1-(2-Fluoro-phenyl)-5-(2-hydroxy-2,3-dimethyl-butoxy)-1H-pyrazole-3-carbonyl]-amino}-5-methyl-hexanoic acid] | < 100

Same assay, conditions: recombinant human cathepsin A 833 ng/ml, Bodipy FL-labeled bradykinin 2 μM, pH 5.5; read-out: CATH-A IC50

IC50 [nM] | SMILES
139 | O=C(O)CC(NC(=O)c1cc(O)n(-c2ccc(F)cc2F)n1)c1cc(F)ccc1C(F)(F)F (stereo not shown) [Example 452, 3-{[1-(2,4-Difluoro-phenyl)-5-hydroxy-1H-pyrazole-3-carbonyl]-amino}-3-(5-fluoro-2-trifluoromethyl-phenyl)-propionic acid]
274 | O=C(O)CC(NC(=O)c1cc(O)n(-c2cccc(Cl)c2)n1)c1cccc2c1OC(F)(F)O2 (stereo not shown) [Example 464, 3-{[1-(3-Chloro-phenyl)-5-hydroxy-1H-pyrazole-3-carbonyl]-amino}-3-(2,2-difluoro-benzo[1,3]dioxol-4-yl)-propionic acid]
1110 | COc1cc(-c2ccccc2)ccc1C(CC(=O)O)NC(=O)c1cc(O)n(-c2ccccc2)n1 (stereo not shown) [Example 545, 3-[(5-Hydroxy-1-phenyl-1H-pyrazole-3-carbonyl)-amino]-3-(3-methoxy-biphenyl-4-yl)-propionic acid]
176 | COc1cccc(F)c1C(CC(=O)O)NC(=O)c1cc(O)n(-c2ccc(F)cc2F)n1 (stereo not shown) [Example 449, 3-{[1-(2,4-Difluoro-phenyl)-5-hydroxy-1H-pyrazole-3-carbonyl]-amino}-3-(2-fluoro-6-methoxy-phenyl)-propionic acid]
41.2 | COc1cc(C(=O)N[C@@H](CC(=O)O)c2ccccc2C)nn1-c1ccccc1F [Example 129, (S)-3-{[1-(2-Fluoro-phenyl)-5-methoxy-1H-pyrazole-3-carbonyl]-amino}-3-o-tolyl-propionic acid]
513 | COc1cccc(F)c1C(CC(=O)O)NC(=O)c1cc(O)n(-c2ccccc2)n1 (stereo not shown) [Example 441, 3-(2-Fluoro-6-methoxy-phenyl)-3-[(5-hydroxy-1-phenyl-1H-pyrazole-3-carbonyl)-amino]-propionic acid]
352 | COc1cc(-c2ccccc2)ccc1C(CC(=O)O)NC(=O)c1cc(O)n(-c2ccccc2F)n1 (stereo not shown) [Example 551, 3-{[1-(2-Fluoro-phenyl)-5-hydroxy-1H-pyrazole-3-carbonyl]-amino}-3-(3-methoxy-biphenyl-4-yl)-propionic acid]
5290 | O=C(O)CC(NC(=O)c1cc(O)n(-c2cccc(Cl)c2)n1)c1cccc(C(F)(F)F)c1F (stereo not shown) [Example 418, 3-{[1-(3-Chloro-phenyl)-5-hydroxy-1H-pyrazole-3-carbonyl]-amino}-3-(2-fluoro-3-trifluoromethyl-phenyl)-propionic acid]
155 | Cc1ccc([C@H](CC(=O)O)NC(=O)c2cc(O)n(-c3cccc(Cl)c3)n2)cc1 [Example 512, (S)-3-{[1-(3-Chloro-phenyl)-5-hydroxy-1H-pyrazole-3-carbonyl]-amino}-3-p-tolyl-propionic acid]

Same assay, conditions: recombinant human cathepsin A; read-out: Activity (2): Cathepsin A inhibitory activity, IC50 class

IC50 [nM] | SMILES
100 to 1000 | O=C(O)CC(NC(=O)c1cc(O)n(-c2ccc(F)cc2F)n1)c1cc(F)ccc1C(F)(F)F (stereo not shown) [Example 452, 3-{[1-(2,4-Difluoro-phenyl)-5-hydroxy-1H-pyrazole-3-carbonyl]-amino}-3-(5-fluoro-2-trifluoromethyl-phenyl)-propionic acid]
100 to 1000 | O=C(O)CC(NC(=O)c1cc(O)n(-c2cccc(Cl)c2)n1)c1cccc2c1OC(F)(F)O2 (stereo not shown) [Example 464, 3-{[1-(3-Chloro-phenyl)-5-hydroxy-1H-pyrazole-3-carbonyl]-amino}-3-(2,2-difluoro-benzo[1,3]dioxol-4-yl)-propionic acid]
< 100 | COc1cc(C(=O)N[C@@H](CC(=O)N[C@H](CO)C(C)C)c2ccccc2C)nn1-c1ccccc1F [Example 936, 1-(2-Fluoro-phenyl)-5-methoxy-1H-pyrazole-3-carboxylic acid [(S)-2-((S)-1-hydroxymethyl-2-methyl-propylcarbamoyl)-1-o-tolyl-ethyl]-amide]
100 to 1000 | COc1ccc(C(CC(=O)O)NC(=O)c2cc(O)n(-c3cccc(F)c3)n2)c(C)c1 (stereo not shown) [Example 426]
1000 to 30000 | COc1ccc(C(CC(=O)O)NC(=O)c2cc(O)n(-c3ccc(F)cc3)n2)c(OC)c1 (stereo not shown) [Example 436]
100 to 1000 | COc1cccc(F)c1C(CC(=O)O)NC(=O)c1cc(O)n(-c2ccc(F)cc2F)n1 (stereo not shown) [Example 449, 3-{[1-(2,4-Difluoro-phenyl)-5-hydroxy-1H-pyrazole-3-carbonyl]-amino}-3-(2-fluoro-6-methoxy-phenyl)-propionic acid]
1000 to 30000 | N#Cc1ccc([C@H](CC(=O)O)NC(=O)c2cc(O)n(-c3cccc(Cl)c3)n2)cc1 [Example 410]
100 to 1000 | COc1cccc(F)c1C(CC(=O)O)NC(=O)c1cc(O)n(-c2ccccc2)n1 (stereo not shown) [Example 441, 3-(2-Fluoro-6-methoxy-phenyl)-3-[(5-hydroxy-1-phenyl-1H-pyrazole-3-carbonyl)-amino]-propionic acid]
1000 to 30000 | O=C(O)CC(NC(=O)c1cc(O)n(-c2cccc(Cl)c2)n1)c1cccc(C(F)(F)F)c1F (stereo not shown) [Example 418, 3-{[1-(3-Chloro-phenyl)-5-hydroxy-1H-pyrazole-3-carbonyl]-amino}-3-(2-fluoro-3-trifluoromethyl-phenyl)-propionic acid]
100 to 1000 | Cc1ccc([C@H](CC(=O)O)NC(=O)c2cc(O)n(-c3cccc(Cl)c3)n2)cc1 [Example 512, (S)-3-{[1-(3-Chloro-phenyl)-5-hydroxy-1H-pyrazole-3-carbonyl]-amino}-3-p-tolyl-propionic acid]
100 to 1000 | COc1ccc(-c2ccc(C(CC(=O)O)NC(=O)c3cc(O)n(-c4ccccc4F)n3)cc2)cn1 (stereo not shown) [Example 531]

Source: US8664257B2, “Oxygen-substituted 3-heteroaroylamino-propionic acid derivatives and their use as pharmaceuticals” (Sanofi, priority 2010, dated 2014)
